In brackets after ≈: the same amount, converted by molar mass. *1 amine or outer side, *2 acyl side, *3 side chain or, on linkers, in order; H or OH if unused. Where a SMILES comes first, the peptide text is derived from it. Bridges are numbered along the chain shown (N, C = ends). [ ]: non-standard residue; d: D form. The star is where a group is joined. X1 = O=C(NC(=O)[C@H](Cc1cnc[nH]1)N[*:1])[C@@H](Cc1cnc[nH]1)C(=O)[*:2]; C20 diacid = O=C(O)CCCCCCCCCCCCCCCCCCC(=O)*; γGlu = O=C(O)[C@H](CCC(=O)[*:2])N[*:1]; hArg = N=C(N)NCCCC[C@H](N)C(=O)O
Tests used:
[1] = Agonist activity at human AMY3R (CT+RAMP3) expressed in Hollex1 cells incubated for 3 hrs by luminescence assay; assay type: cell-based; conditions: Hollex1, 3 h
[2] = Agonist activity at human calcitonin receptor expressed in BHK570 cells assessed as increase in intracellular cAMP concentration incubated for 3 hrs in absence of albumin by CRE luciferase reporter gene assay; assay type: cell-based; conditions: BHK570, 3 h
[3] = organism: Homo sapiens; experiment: Ratio of EC50 for human calcitonin receptor expressed in BHK570 cells to EC50 for human AMY3R (CT+RAMP3) expressed in Hollex1 cells; assay type: cell-based
[4] = Agonist activity at rat AMY3R (CT+RAMP3) expressed in tk-ts13 cells assessed as increase in intracellular cAMP level incuabted for 25 mins by CRE luciferase reporter gene assay; assay type: cell-based; conditions: tk-ts13, 25 min
[5] = Agonist activity at rat calcitonin receptor expressed in BHK-13 cells assessed as increase in intracellular cAMP concentration incubated for 25 mins by CRE luciferase reporter gene assay; assay type: cell-based; conditions: BHK-13, 25 min
[6] = organism: Rattus norvegicus; experiment: Ratio of EC50 for rat calcitonin receptor expressed in BHK-13 cells to EC50 for rat AMY3R (CT+RAMP3) expressed in tk-ts13 cells; assay type: cell-based
[7] = Displacement of [125I]-amylin from human AMY3R (CTR+RAMP3) expressed in BHK-13 cells measured after 120 mins by scintillation proximity assay; assay type: cell-based
[8] = Solubility of the compound in lactate at pH 3 by UPLC analysis; assay type: physicochemical; conditions: lactate buffer
[9] = Solubility of the compound in lactate at pH 4 by UPLC analysis; assay type: physicochemical; conditions: lactate buffer
[10] = Solubility of the compound in lactate at pH 5 by UPLC analysis; assay type: physicochemical; conditions: lactate buffer
[11] = Solubility of the compound in bis-tris propane at pH 6 by UPLC analysis; assay type: physicochemical; conditions: bis-tris propane buffer
[12] = Solubility of the compound in bis-tris propane at pH 6.5 by UPLC analysis; assay type: physicochemical; conditions: bis-tris propane buffer
[13] = Solubility of the compound in bis-tris propane at pH 7 by UPLC analysis; assay type: physicochemical; conditions: bis-tris propane buffer
[14] = Solubility of the compound in bis-tris propane at pH 7.5 by UPLC analysis; assay type: physicochemical; conditions: bis-tris propane buffer
[15] = Solubility of the compound in bis-tris propane at pH 8 by UPLC analysis; assay type: physicochemical; conditions: bis-tris propane buffer
[16] = molecular target: Insulin (Homo sapiens) (UniProt P01308); experiment: Effect on insulin (unknown origin) amyloid fibril formation assessed as lag time in glycyl-glycine buffer at pH 4 measured after 45 hrs by thioflavin-T fluorescence assay
[17] = molecular target: Insulin (Homo sapiens) (UniProt P01308); experiment: Effect on insulin (unknown origin) amyloid fibril formation assessed as peptide recovery in glycyl-glycine buffer at pH 4 measured after 45 hrs by thioflavin-T fluorescence assay relative to control; design: concentration or dose not given beside the values
[18] = system: Rattus norvegicus; experiment: Reduction in food intake in Sprague-Dawley rat at 30 nmol/kg, sc administered as single dose measured upto 24 hrs relative to control; assay type: functional; design: scale not given: the % may be the effect or the level left; conditions: time hrs <=24
[19] = system: Rattus norvegicus; experiment: Reduction in food intake in Sprague-Dawley rat at 30 nmol/kg, sc administered as single dose measured after 24 to 48 hrs relative to control; assay type: functional; design: scale not given: the % may be the effect or the level left; conditions: time 24-48 hrs
[20] = Displacement of [125I]-calcitonin from human calcitonin receptor expressed in tk-ts 13 cells measured after 120 mins by scintillation proximity assay; assay type: cell-based; conditions: tk-ts13
[21] = organism: Homo sapiens; experiment: Ratio of IC50 for displacement of [125I]-calcitonin from human calcitonin receptor expressed in tk-ts 13 cells to IC50 for displacement of [125I]-amylin from human AMY3R (CTR+RAMP3) expressed in BHK-13 cells; assay type: cell-based
[22] = Displacement of [125I]-amylin from rat AMY3R (CTR+RAMP3) expressed in BHK-13 cells measured after 120 mins by scintillation proximity assay; assay type: cell-based
[23] = Displacement of [125I]-calcitonin from rat calcitonin receptor expressed in tk-ts 13 cells measured after 120 mins by scintillation proximity assay; assay type: cell-based; conditions: tk-ts13
[24] = organism: Rattus norvegicus; experiment: Ratio of IC50 for displacement of [125I]-calcitonin from rat calcitonin receptor expressed in tk-ts 13 cells to IC50 for displacement of [125I]-amylin from rat AMY3R (CTR+RAMP3) expressed in BHK-13 cells; assay type: cell-based
[25] = system: Rattus norvegicus; experiment: Reduction in food intake in Sprague-Dawley rat at 3 nmol/kg, sc administered as single dose measured upto 24 hrs relative to control; assay type: functional; design: scale not given: the % may be the effect or the level left; conditions: time hrs <=24
[26] = system: Rattus norvegicus; experiment: Reduction in food intake in Sprague-Dawley rat at 3 nmol/kg, sc administered as single dose measured after 24 to 48 hrs relative to control; assay type: functional; design: scale not given: the % may be the effect or the level left; conditions: time 24-48 hrs

Sequence of Insulin (Homo sapiens) (P01308 whole entry): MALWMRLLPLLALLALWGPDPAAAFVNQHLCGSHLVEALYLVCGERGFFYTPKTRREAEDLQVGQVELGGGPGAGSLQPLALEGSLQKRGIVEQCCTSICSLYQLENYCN

EC50 [1] [nM] | EC50 [2] [nM] | EC50 [4] [nM] | EC50 [5] [nM] | IC50 [7] [nM] | solubility [8] [µM] | solubility [9] [µM] | solubility [10] [µM] | solubility [11] [µM] | solubility [12] [µM] | solubility [13] [µM] | solubility [14] [µM] | solubility [15] [µM] | TIME [16] [h] | Activity [17] [%] | Compound | Ratio EC50 [3] | Ratio EC50 [6] | Activity [18] [%] | Activity [19] [%] | further results
0.102 | 0.391 | 0.321 | 4.48 | 1.11 | 200 (≈ 953 µg/mL) | 200 (≈ 953 µg/mL) | 200 (≈ 953 µg/mL) | 200 (≈ 953 µg/mL) | 50 (≈ 238 µg/mL) | 2 (≈ 9.53 µg/mL) | 7 (≈ 33.4 µg/mL) | 25 (≈ 119 µg/mL) | 4 | 21 | CC[C@H](C)[C@H](NC(=O)[C@@H]1CCCN1C(=O)CNC(=O)[C@H](Cc1ccccc1)NC(=O)[C@H](CC(N)=O)NC(=O)[C@H](CC(N)=O)NC(=O)[C@H](CO)NC(=O)[C@H](CO)NC(=O)[C@H](Cc1cnc[nH]1)NC(=O)[C@H](Cc1cnc[nH]1)NC(=O)[C@H](CC(C)C)NC(=O)[C@H](Cc1ccccc1)NC(=O)[C@H](CC(N)=O)NC(=O)[C@H](C)NC(=O)[C@H](CC(C)C)NC(=O)[C@H](CCCCNC(=N)N)NC(=O)[C@H](CCC(N)=O)NC(=O)[C@@H](NC(=O)[C@H](C)NC(=O)[C@@H]1CSSC[C@H](NC(=O)[C@H](Cc2cnc[nH]2)NC(=O)[C@H](Cc2cnc[nH]2)C(=O)NC(=O)[C@H](Cc2cnc[nH]2)NC(=O)CC[C@H](NC(=O)CCCCCCCCCCCCCCCCCCC(=O)O)C(=O)O)C(=O)N[C@@H](CC(N)=O)C(=O)N[C@@H]([C@@H](C)O)C(=O)N[C@@H](C)C(=O)N[C@@H]([C@@H](C)O)C(=O)N1)[C@@H](C)O)C(=O)N[C@@H](CC(C)C)C(=O)N1CCC[C@H]1C(=O)N1CCC[C@H]1C(=O)N[C@H](C(=O)N[C@@H](CC(N)=O)C(=O)N[C@H](C(=O)NCC(=O)N[C@@H](CO)C(=O)N[C@@H](CC(N)=O)C(=O)N[C@H](C(=O)N[C@@H](Cc1ccc(O)cc1)C(N)=O)[C@@H](C)O)C(C)C)[C@@H](C)O ({C20 diacid-γGlu}-[X1]HCNTATCATQ[hArg]LANFLHHSSNNFGPILPPTNVGSNTY-NH2; disulfide 3-8) | 4 | 7 | 24 | 2 | –
0.074 | 0.136 | 0.335 | 14.1 | 0.216 | 200 (≈ 945 µg/mL) | 200 (≈ 945 µg/mL) | 200 (≈ 945 µg/mL) | 1 (≈ 4.72 µg/mL) | 1 (≈ 4.72 µg/mL) | 1 (≈ 4.72 µg/mL) | 1 (≈ 4.72 µg/mL) | 1 (≈ 4.72 µg/mL) | 6 | 9 | CC[C@H](C)[C@H](NC(=O)[C@@H]1CCCN1C(=O)CNC(=O)[C@H](Cc1ccccc1)NC(=O)[C@H](CC(N)=O)NC(=O)[C@H](CC(N)=O)NC(=O)[C@H](CO)NC(=O)[C@H](CO)NC(=O)[C@H](Cc1cnc[nH]1)NC(=O)[C@H](Cc1cnc[nH]1)NC(=O)[C@H](CC(C)C)NC(=O)[C@H](Cc1ccccc1)NC(=O)[C@H](CC(N)=O)NC(=O)[C@H](C)NC(=O)[C@H](CC(C)C)NC(=O)[C@H](CCCNC(=N)N)NC(=O)[C@H](CCC(N)=O)NC(=O)[C@@H](NC(=O)[C@H](C)NC(=O)[C@@H]1CSSC[C@H](NC(=O)[C@H](Cc2cnc[nH]2)NC(=O)CC[C@H](NC(=O)[C@H](Cc2cnc[nH]2)NC(=O)[C@H](Cc2cnc[nH]2)NC(=O)CCCCCCCCCCCCCCCCCCC(=O)O)C(=O)O)C(=O)N[C@@H](CC(N)=O)C(=O)N[C@@H]([C@@H](C)O)C(=O)N[C@@H](C)C(=O)N[C@@H]([C@@H](C)O)C(=O)N1)[C@@H](C)O)C(=O)N[C@@H](CC(C)C)C(=O)N1CCC[C@H]1C(=O)N1CCC[C@H]1C(=O)N[C@H](C(=O)N[C@@H](CC(N)=O)C(=O)N[C@H](C(=O)NCC(=O)N[C@@H](CO)C(=O)N[C@@H](CC(N)=O)C(=O)N[C@H](C(=O)N[C@@H](Cc1ccc(O)cc1)C(N)=O)[C@@H](C)O)C(C)C)[C@@H](C)O ({C20 diacid}-HH[γGlu]HCNTATCATQRLANFLHHSSNNFGPILPPTNVGSNTY-NH2; disulfide 5-10) | 2 | 42 | 75 | 44 | IC50 [20]: 1.3 nM; Ratio IC50 [21]: 6; IC50 [22]: 0.149 nM; IC50 [23]: 3.33 nM; Ratio IC50 [24]: 22; Activity [25]: 32%; Activity [26]: 4%

— ChEMBL document CHEMBL4842340, “Development of Cagrilintide, a Long-Acting Amylin Analogue” (J Med Chem, 2021)
